Source: publication PMC12638379, “An innovative approach to development of new pyrazolylquinolin-2-one hybrids as dual EGFR and BRAF^V600E inhibitors” (Molecular Diversity, 2025)
Where two headings read alike, the source gives them in different places.

Test system: NCI 60 cancer cell lines
Assay: NCI anticancer screening over a panel of 60 cancer cells, single concentration 10 µM
Format: cell-based, human
Settings: Homo sapiens, read-out: % Growth Inhibition (GI %)
Method in brief: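 Primary single-dose screen at 10 µM over the NCI panel of 60 human tumour cell lines (leukemia, CNS, lung, colon, kidney, ovary, breast, prostate). The standard NCI Developmental Therapeutics Program protocol was used.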

[1] = 786-0, Renal cancer 786-0, 10 μM
[2] = A549, Non-small cell lung cancer A549/ATCC, 10 μM
[3] = BT-549, Breast cancer BT-549, 10 μM
[4] = CAKI-1, Renal cancer CAKI-1, 10 μM
[5] = CCRF-CEM, Leukemia CCRF-CEM, 10 μM
[6] = COLO 205, Colon cancer COLO 205, 10 μM
[7] = DU-145, Prostate cancer DU-145, 10 μM
[8] = EKVX, Non-small cell lung cancer EKVX, 10 μM
[9] = HCC 2998, Colon cancer HCC-2998, 10 μM
[10] = HCT-15, Colon cancer HCT-15, 10 μM
[11] = HCT-116, Colon cancer HCT-116, 10 μM
[12] = HL-60, Leukemia HL-60(TB), 10 μM
[13] = HOP-62, Non-small cell lung cancer HOP-62, 10 μM
[14] = HOP-92, Non-small cell lung cancer HOP-92, 10 μM
[15] = HT-29, Colon cancer HT29, 10 μM
[16] = Hs-578T, Breast cancer HS 578T, 10 μM
[17] = IGROV-1, Ovarian cancer IGROV1, 10 μM
[18] = LOX IMVI, Melanoma LOX IMVI, 10 μM
[19] = MCF7, Breast cancer MCF7, 10 μM
[20] = MDA-MB-231, Breast cancer MDA-MB-231/ATCC, 10 μM
[21] = MDA-MB-435, Melanoma MDA-MB-435, 10 μM
[22] = MDA-MB-468, Breast cancer MDA-MB-468, 10 μM
[23] = NCI-H23, Non-small cell lung cancer NCI-H23, 10 μM
[24] = NCI-H226, Non-small cell lung cancer NCI-H226, 10 μM
[25] = NCI-H322M, Non-small cell lung cancer NCI-H322M, 10 μM
[26] = NCI-H460, Non-small cell lung cancer NCI-H460, 10 μM
[27] = NCI-H522, Non-small cell lung cancer NCI-H522, 10 μM
[28] = NCI/ADR-RES, Ovarian cancer NCI/ADR-RES, 10 μM
[29] = OVCAR-3, Ovarian cancer OVCAR-3, 10 μM
[30] = OVCAR-4, Ovarian cancer OVCAR-4, 10 μM
[31] = OVCAR-5, Ovarian cancer OVCAR-5, 10 μM
[32] = OVCAR-8, Ovarian cancer OVCAR-8, 10 μM
[33] = RPMI-8226, Leukemia RPMI-8226, 10 μM
[34] = RXF 393, Renal cancer RXF 393, 10 μM
[35] = SF-268, CNS Cancer SF-268, 10 μM
[36] = SF-295, CNS Cancer SF-295, 10 μM
[37] = SF-539, CNS Cancer SF-539, 10 μM
[38] = SK-MEL-2, Melanoma SK-MEL-2, 10 μM
[39] = SK-MEL-5, Melanoma SK-MEL-5, 10 μM
[40] = SK-MEL-28, Melanoma SK-MEL-28, 10 μM
[41] = SK-OV-3, Ovarian cancer SK-OV-3, 10 μM
[42] = SN12C, Renal cancer SN12C, 10 μM
[43] = SNB-19, CNS Cancer SNB-19, 10 μM
[44] = SNB-75, CNS Cancer SNB-75, 10 μM
[45] = SW-620, Colon cancer SW-620, 10 μM
[46] = T47D, Breast cancer T-47D, 10 μM
[47] = TK-10, Renal cancer TK-10, 10 μM
[48] = UACC-62, Melanoma UACC-62, 10 μM
[49] = UACC-257, Melanoma UACC-257, 10 μM
[50] = UO-31, Renal cancer UO-31, 10 μM

`COc1ccc2[nH]c(=O)cc(-n3ncc(/C(C)=N/Nc4ccc(C(=O)O)cc4)c3C)c2c1` [Compound 4h, (E)-4-(2-(1-(1-(6-methoxy-2-oxo-1,2-dihydroquinolin-4-yl)-5-methyl-1H-pyrazol-4-yl)ethylidene)hydrazineyl)benzoic acid] was tested, and the inhibition at 10 µM [1] was < 5%, the inhibition at 10 µM (A498, Renal cancer A498, 10 μM) was < 5% and the inhibition at 10 µM [2] was < 5%. For the same compound, the inhibition at 10 µM (ACHN, Renal cancer ACHN, 10 μM) was < 5%, the inhibition at 10 µM [3] was < 5% and the inhibition at 10 µM [4] was < 5%. The inhibition at 10 µM [5] was < 5%, the inhibition at 10 µM [6] was < 5% and the inhibition at 10 µM [7] was < 5%. The inhibition at 10 µM [8] was < 5%, the inhibition at 10 µM [9] was < 5% and the inhibition at 10 µM [10] was < 5%. For the same compound, the inhibition at 10 µM [11] was < 5%, the inhibition at 10 µM [12] was < 5% and the inhibition at 10 µM [13] was < 5%. The inhibition at 10 µM [14] was 38.5%, the inhibition at 10 µM [15] was < 5% and the inhibition at 10 µM [16] was < 5%. For the same compound, the inhibition at 10 µM [17] was < 5%, the inhibition at 10 µM (K562, Leukemia K-562, 10 μM) was < 5% and the inhibition at 10 µM (KM12, Colon cancer KM12, 10 μM) was < 5%. The inhibition at 10 µM [18] was < 5%, the inhibition at 10 µM (Leukemia SR, 10 μM) was < 5% and the inhibition at 10 µM [19] was 5.52%. The inhibition at 10 µM [20] was 4.98%, the inhibition at 10 µM [21] was < 5% and the inhibition at 10 µM [22] was < 5%. For the same compound, the inhibition at 10 µM (MOLT-4, Leukemia MOLT-4, 10 μM) was < 5%, the inhibition at 10 µM (Melanoma M14, 10 μM) was < 5% and the inhibition at 10 µM (Melanoma MALM-3M, 10 μM) was < 5%. The inhibition at 10 µM [23] was < 5%, the inhibition at 10 µM [24] was < 5% and the inhibition at 10 µM [25] was < 5%. The inhibition at 10 µM [26] was < 5%, the inhibition at 10 µM [27] was < 5% and the inhibition at 10 µM [28] was < 5%. The inhibition at 10 µM [29] was < 5%, the inhibition at 10 µM [30] was < 5% and the inhibition at 10 µM [31] was < 5%. The inhibition at 10 µM [32] was < 5%, the inhibition at 10 µM (Prostate cancer PC-3, 10 μM) was < 5% and the inhibition at 10 µM [33] was < 5%. For the same compound, the inhibition at 10 µM [34] was < 5%, the inhibition at 10 µM [35] was < 5% and the inhibition at 10 µM [36] was < 5%. For the same compound, the inhibition at 10 µM [37] was < 5%, the inhibition at 10 µM [38] was < 5% and the inhibition at 10 µM [39] was < 5%. For the same compound, the inhibition at 10 µM [40] was < 5%, the inhibition at 10 µM [41] was < 5% and the inhibition at 10 µM [42] was < 5%. The inhibition at 10 µM [43] was < 5%, the inhibition at 10 µM [44] was < 5% and the inhibition at 10 µM [45] was < 5%. The inhibition at 10 µM [46] was < 5%, the inhibition at 10 µM [47] was < 5% and the inhibition at 10 µM (U-251, CNS Cancer U251, 10 μM) was < 5%. The inhibition at 10 µM [48] was < 5%, the inhibition at 10 µM [49] was < 5% and the inhibition at 10 µM [50] was 22.6%.

In the case of `C/C(=N\Nc1ccc(C(=O)O)cc1)c1cnn(-c2cc(=O)[nH]c3ccc(Cl)cc23)c1C` [Compound 4i, (E)-4-(2-(1-(1-(6-chloro-2-oxo-1,2-dihydroquinolin-4-yl)-5-methyl-1H-pyrazol-4-yl)ethylidene)hydrazineyl)benzoic acid], the inhibition at 10 µM [1] was < 5%, the inhibition at 10 µM (A498, Renal cancer A498, 10 μM) was < 5% and the inhibition at 10 µM [2] was < 5%. The inhibition at 10 µM (ACHN, Renal cancer ACHN, 10 μM) was < 5%, the inhibition at 10 µM [3] was < 5% and the inhibition at 10 µM [4] was 10.8%. The inhibition at 10 µM [5] was < 5%, the inhibition at 10 µM [6] was < 5% and the inhibition at 10 µM [7] was < 5%. The inhibition at 10 µM [8] was < 5%, the inhibition at 10 µM [9] was < 5% and the inhibition at 10 µM [10] was < 5%. For the same compound, the inhibition at 10 µM [11] was < 5%, the inhibition at 10 µM [12] was 5.88% and the inhibition at 10 µM [13] was < 5%. The inhibition at 10 µM [14] was 36.7%, the inhibition at 10 µM [15] was < 5% and the inhibition at 10 µM [16] was 6.25%. For the same compound, the inhibition at 10 µM [17] was < 5%, the inhibition at 10 µM (K562, Leukemia K-562, 10 μM) was 7.48% and the inhibition at 10 µM (KM12, Colon cancer KM12, 10 μM) was < 5%. The inhibition at 10 µM [18] was < 5%, the inhibition at 10 µM (Leukemia SR, 10 μM) was < 5% and the inhibition at 10 µM [19] was 8.38%. The inhibition at 10 µM [20] was 12.9%, the inhibition at 10 µM [21] was < 5% and the inhibition at 10 µM [22] was < 5%. The inhibition at 10 µM (MOLT-4, Leukemia MOLT-4, 10 μM) was < 5%, the inhibition at 10 µM (Melanoma M14, 10 μM) was < 5% and the inhibition at 10 µM (Melanoma MALM-3M, 10 μM) was 19.4%. The inhibition at 10 µM [23] was < 5%, the inhibition at 10 µM [24] was < 5% and the inhibition at 10 µM [25] was < 5%. For the same compound, the inhibition at 10 µM [26] was < 5%, the inhibition at 10 µM [27] was < 5% and the inhibition at 10 µM [28] was < 5%. The inhibition at 10 µM [29] was < 5%, the inhibition at 10 µM [30] was < 5% and the inhibition at 10 µM [31] was < 5%. For the same compound, the inhibition at 10 µM [32] was < 5%, the inhibition at 10 µM (Prostate cancer PC-3, 10 μM) was < 5% and the inhibition at 10 µM [33] was < 5%. For the same compound, the inhibition at 10 µM [34] was < 5%, the inhibition at 10 µM [35] was < 5% and the inhibition at 10 µM [36] was < 5%. The inhibition at 10 µM [37] was < 5%, the inhibition at 10 µM [38] was < 5% and the inhibition at 10 µM [39] was < 5%. For the same compound, the inhibition at 10 µM [40] was < 5%, the inhibition at 10 µM [41] was 5.11% and the inhibition at 10 µM [42] was < 5%. The inhibition at 10 µM [43] was < 5%, the inhibition at 10 µM [44] was 5.56% and the inhibition at 10 µM [45] was < 5%. The inhibition at 10 µM [46] was 6.23%, the inhibition at 10 µM [47] was < 5% and the inhibition at 10 µM (U-251, CNS Cancer U251, 10 μM) was < 5%. The inhibition at 10 µM [48] was 6.04%, the inhibition at 10 µM [49] was < 5% and the inhibition at 10 µM [50] was 29.1%.
